# Source: article PMC2784364, “VX-166: a novel potent small molecule caspase inhibitor as a potential therapy for sepsis” (Critical Care, 2009)
# “Also recorded” adds a separate entry of the source.
# Legend:
# granzyme B = target: T1, granzyme B (Homo sapiens, UniProt P10144); assay: Granzyme B counter-screen; assay type: biochemical; conditions: at 50 μM
# T1 construct: purchased Merck Biosciences Ltd. (Nottingham, UK)
# Procedure: (§1) Active recombinant caspase-1, -3, -4, -7 and -8 were prepared as described previously. Caspase-2 was purchased from Biomol (Exeter, UK), caspase-6 from BD Biosciences (Oxford, UK), caspase-9 from Europa Bioproducts Ltd. (Cambridge, UK) and caspase-10 from Chemicon International Inc. (Harrow, UK). Cathepsin B and granzyme B were purchased from Merck Biosciences Ltd. (Nottingham, UK). Fluorogenic protease substrates were purchased from Bachem Ltd. (St. Helens, UK). All reactions were carried out at 37°C using a Molecular Devices (Wokingham, UK) Gemini plate-reader at 460 nm (excitation wavelength of 390 nm). Caspase inhibition assays were conducted, with minor modifications, as described by Margolin and colleagues. Irreversible kinetics were analysed by calculations of second-order inactivation rate constants (k) using GraphPad (La Jolla, CA, USA) Prism 4.0 software. A larger number for an inactivation rate constant indicates a greater degree of inactivation. To determine the inhibitory effect on cathepsin B, 4.25 nM of the enzyme were added to 250 μM z-RR-AMC in 10 mM 2-morpholino-ethanesulfonic acid pH 6.0, 1 mM DTT, 1 mM EDTA and 0.03% Brij35 in the presence or absence of VX-166 and the reaction monitored continuously over 15 minutes. Granzyme B was assayed, with minor modifications, as described by Thornberry and colleagues. […]
# cathepsin B = target: T2, cathepsin B (Homo sapiens, UniProt P07858); assay: Cathepsin B counter-screen; assay type: biochemical; conditions: highest concentration tested
# T2 construct: purchased Merck Biosciences Ltd. (Nottingham, UK)
# Procedure: as §1
# [1] = system: IL-2 release from peripheral blood mononuclear cells; assay: IL-2 release from anti-CD3/CD28 stimulated PBMC; assay type: cell-based, human; conditions: at 100 μM
# Procedure: PBMC from healthy donors were isolated as described above. To the wells of a 96-well plate previously coated with 1.5 μg/ml anti-hCD3 (Serotec, Kidlington, UK), 5 × 10^5 cells/ml and 1 μg/ml anti-hCD28 (BD Biosciences, Oxford, UK) were added. Plates were then incubated for 24 hours in the presence or absence of VX-166 or the calcineurin inhibitor FK506 (Merck Biosciences Ltd., Nottingham, UK). IL-2 release into the supernatant was subsequently determined by ELISA (R&D Systems, Abingdon, UK) following the manufacturer's instructions.
# CD-1 mice = assay: Endotoxic shock in the mouse (LPS 20 mg/kg iv), survival; assay type: in vivo
# Procedure: Endotoxic shock studies were approved by the Vertex Pharmaceuticals Institutional Animal Care and Use Committee. Adult male CD-1 mice (weighing 30 to 32 g; Charles River Laboratories, Wilmington, MA, USA) were administered LPS (from E. coli serotype 0111:B4, Sigma-Aldrich, St. Louis, MO, USA) at 20 mg/kg iv and survival was monitored for 96 hours (n = 28 per group). VX-166 or vehicle (10% propylene glycol: 90% sodium phosphate buffer pH 8) were administered by repeat iv bolus at 0 hours (co-injection with LPS), 4, 8 and 12 hours post-LPS. VX-166 was administered at 1, 3, 10 or 30 mg/kg.
# Sprague-Dawley rats = assay: Caecal ligation and puncture in the rat, survival; assay type: in vivo; conditions: rat CLP; for survival at day 10: control 40%
# Procedure: CLP studies were performed in accordance with the National Institutes of Health guidelines for the use of experimental animals and were approved by the Institutional Animal Care and Use Committee of the Feinstein Institute for Medical Research. Adult male Sprague-Dawley rats (weighing 275 to 325 g, Charles River Laboratories, Wilmington, MA, USA) were fasted overnight then anaesthetised with isoflurane. The caecum was exposed via a 2 cm midline incision. It was ligated just distal to the ileocaecal valve, then punctured twice with an 18-gauge needle and gently squeezed to release a small amount of faecal material to ensure patency of the perforation sites before the abdominal incision was closed. Sham-operated rats underwent the same procedure with the exception that the caecum was neither ligated nor punctured. Animals received subcutaneous fluids (30 ml/kg saline) immediately after the procedure. No antibiotics were administered. In the 7 and 10 day survival studies animals were re-anaesthetised 20 hours after CLP, the perforated caecum was removed and the abdominal cavity washed twice with 40 ml of warm, sterilised saline. The abdominal cavity was closed, anaesthetics withdrawn and rats returned to their cages where they were allowed free access to food and water. In the 20 hour endpoint study the caecum was not removed. In this study blood samples were collected by cardiac puncture under terminal anaesthesia into heparinised syringes for the subsequent measurement of IL-1β and bacterial endotoxin, while the thymus was removed for analysis of thymocyte apoptosis.
# Alzet® mini-osmotic pumps (Durect Corporation, Cupertino, CA, USA) were used for continuous delivery of VX-166 or vehicle (25% dimethyl sulphoxide: 75% propylene glycol). Pumps with a 2 ml reservoir capacity and a 10 μl//h delivery rate were used in all studies. These pumps are designed to deliver for seven days and so would have expired two to three days before the end of the 10 day survival studies. The mini-osmotic pumps were filled with VX-166 (5 to 25 mg/ml or vehicle) and primed overnight at 37°C prior to subcutaneous implantation in anaesthetised rats. The 25 mg/ml concentration of VX-166 equates to an approximate dose of 0.83 mg/kg/h for a 300 g rat. The pumps were implanted immediately following CLP, except in the delayed onset of treatment study in which pumps were implanted either immediately following CLP (0 hour) or 3 or 8 hours following CLP. Sham-operated rats were implanted with vehicle filled mini-osmotic pumps.
# IL-1β = assay: CLP rat, plasma IL-1β by ELISA; assay type: in vivo; conditions: 20 hours, 25 mg/ml pump, n = 10, P < 0.05
# Procedure: (§2) CLP studies were performed in accordance with the National Institutes of Health guidelines for the use of experimental animals and were approved by the Institutional Animal Care and Use Committee of the Feinstein Institute for Medical Research. Adult male Sprague-Dawley rats (weighing 275 to 325 g, Charles River Laboratories, Wilmington, MA, USA) were fasted overnight then anaesthetised with isoflurane. The caecum was exposed via a 2 cm midline incision. It was ligated just distal to the ileocaecal valve, then punctured twice with an 18-gauge needle and gently squeezed to release a small amount of faecal material to ensure patency of the perforation sites before the abdominal incision was closed. Sham-operated rats underwent the same procedure with the exception that the caecum was neither ligated nor punctured. […]
# (§3) Blood samples were centrifuged at 1500 g for 15 minutes at 4°C, the plasma was removed and stored at -80°C until analysis. Plasma IL-1β levels were determined by ELISA (R&D Systems Inc., Minneapolis, MN, USA) following the manufacturer's instructions. Plasma endotoxin levels were determined using a Limulus amebocyte lysate (LAL) kit (Associates of Cape Cod, Inc., East Falmouth, MA, USA) according to the manufacturer's instruction. […] The optical density was determined at 405 nm using a spectrophotometer. The levels of endotoxin were then calculated and expressed as EU/ml.
# [2] = CLP rat, plasma endotoxin by LAL kit; assay type: in vivo; conditions: 20 hours, 25 mg/ml pump, n = 10, P < 0.05
# Procedure: as §2, §3
# T1 sequence (P10144 21-247, species assumed): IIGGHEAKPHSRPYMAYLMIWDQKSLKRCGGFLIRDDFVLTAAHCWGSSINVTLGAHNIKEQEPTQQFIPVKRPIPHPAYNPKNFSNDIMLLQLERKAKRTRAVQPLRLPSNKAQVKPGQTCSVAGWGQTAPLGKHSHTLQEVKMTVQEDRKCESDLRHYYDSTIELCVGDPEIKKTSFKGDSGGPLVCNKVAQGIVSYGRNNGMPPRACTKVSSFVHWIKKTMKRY
structure (smiles),measurement,setting,value
CCC(C(=O)NC(CC(=O)O)C(=O)COc1c(F)c(F)cc(F)c1F)n1cccc(NC(=O)OC)c1=O (stereo not shown) [VX-166],inhibitory activity against granzyme B,granzyme B,did not show any inhibitory activity
same,inhibition at 50 µM,cathepsin B,19%
same,inhibition of T-cell activation in vitro,[1],partial inhibition
same,survival rate at 96 hours compared with vehicle control,"CD-1 mice; LPS 20 mg/kg iv, 30 mg/kg iv at 0, 4, 8, 12 hours",more than doubled
same,survival over 96 hours,"CD-1 mice; LPS 20 mg/kg iv, 1, 3, 10 or 30 mg/kg repeat iv bolus at 0, 4, 8 and 12 hours post-LPS, vs vehicle",significantly improved survival in a dose-dependent fashion
same,"survival compared with vehicle control, second study","CD-1 mice; different batch of LPS, 30 mg/kg iv at 0, 4, 8, 12 hours, P < 0.0001",substantially improved survival
same,"survival over 10 days compared with vehicle control, second study","Sprague-Dawley rats; 25 mg/ml mini-osmotic pump immediately after CLP, n = 16",improved survival
same,survival at day 7,"Sprague-Dawley rats; 25 mg/ml mini-osmotic pump implanted immediately following CLP, n = 12, control 25%",67%
same,survival at day 10,"Sprague-Dawley rats; 25 mg/ml pump started 0 hours after CLP, n = 12, P = 0.026",83%
same,survival at day 10,"Sprague-Dawley rats; 25 mg/ml pump started 3 hours after CLP, n = 12, P = 0.009",92%
same,survival at day 10,"Sprague-Dawley rats; 25 mg/ml pump started 8 hours after CLP, n = 12, P = 0.19",66%
same,plasma IL-1β level vs vehicle CLP,IL-1β,significant reduction
same,plasma endotoxin level vs vehicle CLP,[2],reduced plasma endotoxin levels; also recorded: reduced the level of endotoxin
